Marks after values point to notes of the source that are not given here.

In assay [1] the test system is monoamine neurotransmitter and its metabolite in cerebral tissues. The assay is described as follows: Measure of cerebral neurotransmitters in rats wearing shackles (HPLC-ECD). It is filed as in vivo, SD rats. Conditions: shackle model rats, brain. From the text: (§1) (i) Modeling Method: Sixty male SD rats, 8-9 weeks old and weighing 200-250 g, were randomly divided into 6 groups and subjected to gavage once a day as shown in Table 9. On the first day, individually housed rats were fitted with a cylindrical plastic shackle-like device composed of two pieces of red organic glass 0.2 cm-thick and 4 cm in diameter. The device could be adjusted according to the size of the animals and was worn for 21 days.
Preparation of Cerebral Tissues: Rats were Sacrificed by Femoral Arterial Exsanguination, and whole brains were weighed after the cerebellum was excised and homogenized in 950 μl (0.1 mol/L) perchloric acid (containing 0.05% Na2EDTA) and 50 μl (2 μg/ml) of DHBA. This material was then centrifuged at 11,000 rpm/for 10 minutes and, 10 μl of the supernatant were taken for testing. Results were as follows: The amount of each neurotransmitter was shown as the wet weight (ng/g) in cerebral tissues.
Chromatographic conditions: Chromatography was performed with a Shimadzu HPLC system, which was equipped with an L-BCD-6A electrochemical detector (detection range: 0.1-500 nA), a chromatographic column of 5 μm, 200 mm×4.6 mm ID glassy carbon electrode; the flow rate employed was 1.2 ml/min, the operating voltage was +0.75 V; and oxygenation was maintained. An NP2000 workstation was used for data recording and processing (Intelligence Information Institute of Zhejiang University). The potential difference between the working electrode and reference electrode was 0.75 V. The mobile phase, prepared with deionized water and degassed, consisted of 0.1 mmol/L citric acid-0.1 mmol/L sodium acetate buffer at pH4.37 with 10% ethanol. A mixture of a B81.2 mmol/L ion pair and 1.3 mmol/L Di-n-butylamine was used after degasification of the G4 glass filler.
Preparation of standard solutions: The stock solutions were 2 μg/ml for DHBA and 20 μg/ml for NE, DA, DOPAC, 5-HT, 5-HIAA and HAV. Standard solution 6 was prepared by mixing 20 μl each of NE, DA, DOPAC, 5-HT, 5-HIAA and HAV, then 80 μl of 0.1 mM mmol/LHCLO4 were added. Standard solution 7 (100 ng/ml) was prepared by mixing 50 μl of standard solution 6, 50 μl DHBA and 900 μl 0.1 mmol/LHCLO4. Standard solution 7 (10 μl) was used for HPLC.

In assay [2] the test system is mice in the tail suspension test. Kind of assay: Tail suspension test in mice. It is filed as in vivo, Kunming mice. As to conditions: mean ± SD. The text has this: Fifty male Kunming mice, 9-10 weeks old and weighing 22-24 g, were randomly divided by weight into 5 groups and administered by gavage a dose of one of the drugs listed in Table 6. Sixty minutes later, mice were individually suspended by the tail (1 cm from the tip) to a horizontal 1 cm-diameter PVC bar by use of the adhesive tape. The tail of mouse was thereby prevented from twisting. The PVC bar was placed overhead to suspend the mouse upside-down, keeping the head 5 cm above the table surface. To avoid interference, each mouse was partitioned by clapboard. […] T-test was used for statistical analysis.
Fifty male Kunming mice, 8-9 weeks old and weighing 18-22 g, were randomly divided by weight into 5 groups, and administered by gavage a dose of one of the drugs listed in Table 7 for 10 consecutive days. Sixty minutes after the last dose, mice were individually suspended by the tail (1 cm from the tip) from a horizontal 1 cm-diameter PVC bar using the adhesive tape. The tail of the mouse was thereby prevented from twisting. The PVC bar was placed overhead to suspend the mouse upside down, keeping the head 5 cm above the table surface. To avoid interference, each mouse was partitioned by clapboard.

For assay [3], the system named is Reserpine-Induced Akinesia in Mice. Kind of assay: Inhibition of akinesia induced by reserpine. Format: in vivo, Kunming mice. Conditions: reserpine 2.5 mg/kg i.p., 10 mice per group. Here is the method:
Fifty male Kunming mice, 8-9 weeks old and weighing 18-22 g, were randomly divided by weight into 5 groups, and administered by gavage a single dose of one of the drugs listed in Table 5 for 10 consecutive days. Sixty minutes after the last dose, mice were given a reserpine injection (2.5 mg/kg) delivered i. p. Sixty minutes later, mice were individually placed on the center of a round filter paper 7.5 cm in diameter. After a 30-sec observation, the number of animals that were still on the filter paper was recorded. Fisher's exact test was used for statistical analysis.

Assay [4] concerns Levodopa Behavior in Mice. The assay is described as follows: Enhancement of the behavioral effects of levodopa on mice. It is filed as in vivo, Kunming mice. Conditions: 10 mice per group. The procedure:
Seventy male Kunming mice, 8-9 weeks old and weighing 18-22 g, were randomly divided by weight […] into 7 groups and administered a single dose by gavage as shown in Table 14. Sixty minutes later, levodopa at a dose of 200 mg/kg (the maximal dose not inducing running in mice) was administered i. p. Then, mice were put into separate cages and observed for 30 minutes. The number of running mice was recorded. Fisher's exact test was used for statistical analysis.

The test system of assay [5] is model rats wearing shackles. Kind of assay: Stress testing of rats wearing shackles (open-field test). Format: in vivo. Conditions: shackle model rats, mean ± SD.
Text: as §1
(ii) Test Indexes: Behavior such as rearing up; grabbing and gnawing; braying; slowness in reactions; action tardiness; narrowing of the eyes with secretion; yellow of fur; small, dry and fewer feces; borrow-reddish fail with scales and weight loss. An open-field test was used to observe the behavior of animals on day 21 (the same method used with the chronic stress rat model).

In assay [6] the test system is Reserpine-Induced Ptosis in Mice. Kind of assay: Inhibition of reserpine-induced ptosis. Format: in vivo, Kunming mice. As to conditions: reserpine 2 mg/kg i.p., 10 mice per group. Here is the method:
Fifty male Kunming mice, 8-9 weeks old and weighing 18-22 g, were randomly divided by weight into 5 groups, and administered by gavage a single dose of one of the drugs listed in Table 3 for 10 consecutive days. Sixty minutes after the last dose, mice were given an i.p. injection of reserpine (2 mg/kg). After 60 minutes, mice were put on a bracketed stand and observed for 2 minutes. The number of animals with at least one upper eyelid closed was recorded. Fisher's exact test was used for statistical analysis.

The subject of the next assay is NA Re-uptake. Kind of assay: NA re-uptake test ([3H]-norepinephrine, corpus striatum homogenate). It is filed as biochemical, SD rats.
Setting [7] is: open-field day 21, 16 mg/kg × 21 i.g.

`CC(C)=CCC[C@](C)(O)[C@H]1CC[C@]2(C)[C@@H]1[C@H](O)C[C@@H]1[C@@]3(C)CC[C@H](O)C(C)(C)[C@@H]3CC[C@]12C` [20(S)-protopanaxadiol]: the “Concentration of monoamine neurotransmitter and its metabolite: 5-HIAA” value is listed as 8.78 ng/g nerve tissues in assay [1] (3.33 mg/kg × 21 i.g.), 9.02 ng/g nerve tissues in assay [1] (6.67 mg/kg × 21 i.g.) and 8.62 ng/g nerve tissues in assay [1] (13.33 mg/kg × 21 i.g.). In addition, the figures for the “Concentration of monoamine neurotransmitter and its metabolite: DA” value in assay [1] (3.33 mg/kg × 21 i.g.), in assay [1] (6.67 mg/kg × 21 i.g.) and in assay [1] (13.33 mg/kg × 21 i.g.) were 375.96 ng/g nerve tissues, 401.67 ng/g nerve tissues and 394.41 ng/g nerve tissues, respectively. In addition, the “Concentration of monoamine neurotransmitter and its metabolite: DOPAC” value in assay [1] (3.33 mg/kg × 21 i.g.) amounted to 21.57 ng/g nerve tissues; in assay [1] (6.67 mg/kg × 21 i.g.), 22.17 ng/g nerve tissues; in assay [1] (13.33 mg/kg × 21 i.g.), 20.68 ng/g nerve tissues. The “Concentration of monoamine neurotransmitter and its metabolite: 5-HT” value in assay [1] (6.67 mg/kg × 21 i.g.) was 113.18 ng/g nerve tissues; in assay [1] (13.33 mg/kg × 21 i.g.) it was 102.81 ng/g nerve tissues. The “Concentration of monoamine neurotransmitter and its metabolite: HAV” value in assay [1] (6.67 mg/kg × 21 i.g.) came to 56.37 ng/g nerve tissues; in assay [1] (13.33 mg/kg × 21 i.g.), 53.19 ng/g nerve tissues. Moreover, the “Concentration of monoamine neurotransmitter and its metabolite: NE” value in assay [1] (13.33 mg/kg × 21 i.g.) was 11.04 ng/g nerve tissues. For the same compound, the “Cumulative immobility within 6 minutes” value is 95.00 ± 36.21 s in assay [2] (single dose 3.75 mg/kg × 1 i.g.) and 92.30 ± 32.93 s in assay [2] (single dose 7.5 mg/kg × 1 i.g.). For the same compound, the “Number of animals Remaining on the filter paper for 30 seconds” value in assay [3] (3.75 mg/kg × 10 i.g.) is listed as 8; in assay [3] (7.5 mg/kg × 10 i.g.), 7. The “Number of running animals” value in assay [4] (3.75 mg/kg × 1 i.g., with levodopa 200 mg/kg i.p.) was determined as 2. In addition, in assay [5] (open-field day 21, 3.33 mg/kg × 21 i.g.), the Number of crossing is recorded as 7.00 ± 2.05 times/3 min. For the same compound, the “Number of animals with at least one upper eyelid closed” value in assay [6] (3.75 mg/kg × 10 i.g.) is recorded as 9; in assay [6] (7.5 mg/kg × 10 i.g.), 8. Moreover, the Amount of re-uptake with NA Re-uptake (concentration 0.01 μg/ml) stood at 5347.8 ± 555.1 dmp; with NA Re-uptake (concentration 0.1 μg/ml), 5137.2 ± 465.7 dmp; with NA Re-uptake (concentration 1 μg/ml), 4950.6 ± 534.5 dmp; in the assay on NA Re-uptake (concentration 10 μg/ml), 4690.1 ± 332.1 dmp. The Inhibitory rate was found to be 4.4% with NA Re-uptake (concentration 0.01 μg/ml), 8.2% in the assay with NA Re-uptake (concentration 0.1 μg/ml), 11.5% in the assay with NA Re-uptake (concentration 1 μg/ml) and 16.2% in the assay with NA Re-uptake (concentration 10 μg/ml).

For the compound `CNCCC(Oc1ccc(C(F)(F)F)cc1)c1ccccc1` (stereo not drawn) [Fluoxetine, reference compound], in assay [1] (16 mg/kg × 21 i.g.), the “Concentration of monoamine neurotransmitter and its metabolite: 5-HIAA” value was 8.42 ng/g nerve tissues; the “Concentration of monoamine neurotransmitter and its metabolite: 5-HT” value was 136.88 ± ng/g nerve tissues; the “Concentration of monoamine neurotransmitter and its metabolite: DA” value was 406.97 ng/g nerve tissues; the “Concentration of monoamine neurotransmitter and its metabolite: DOPAC” value was 21.53 ng/g nerve tissues. Moreover, in assay [1] (16 mg/kg × 21 i.g.), the “Concentration of monoamine neurotransmitter and its metabolite: HAV” value is given as 62.17 ± ng/g nerve tissues; the “Concentration of monoamine neurotransmitter and its metabolite: NE” value is 13.67 ± ng/g nerve tissues. Further, the “Cumulative immobility within 6 minutes” value in assay [2] (multiple dose 18 mg/kg × 10 i.g.) was determined as 59.10 ± 35.40 s. For the same compound, the “Cumulative immobility within 6 minutes” value in assay [2] (single dose 18 mg/kg × 1 i.g.) worked out at 70.90 ± 23.11 s. Also, in assay [3] (18 mg/kg × 10 i.g.), the “Number of animals Remaining on the filter paper for 30 seconds” value is reported as 3**. For the same compound, in assay [4] (18 mg/kg × 1 i.g., with levodopa 200 mg/kg i.p.), the “Number of running animals” value was 7**. Besides, the “Number of running animals” value in assay [4] (18 mg/kg × 1 i.g., without levodopa) is given as 0. In assay [5] (setting [7]), the Number of crossing is listed as 11.20 ± 3.08 times/3 min and the Number of rearing turned out to be 49.80 ± 20.31 times/3 min. Moreover, the “Number of animals with at least one upper eyelid closed” value in assay [6] (18 mg/kg × 10 i.g.) is listed as 4*. The Amount of re-uptake in the assay on NA Re-uptake (concentration 1 μg/ml) is 4311.8 ± 733.8 dmp.
